# According to the supplement of paper PMC10307832:
# Legend:
# Assay in all cases: relative viability (nuclei count vs DMSO), 5 days (fraction); higher = more cells survive
# NCI-H322M = test system: NCI-H322M
# How it was run: (§1)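 A single step with final 0.05% Triton X-100, 1% formaldehyde and 1 ug/ml Hoechst fixed the cells and stained nuclei 5 days after treatment. Lung cancer cell lines in 1536-well plates had been treated by pin tool the day after seeding with one drug alone or a fixed anchor-drug dose plus five library-drug doses (not always all listed) in √10 steps, and nuclei were counted on 4× images. Relative viability is the ratio of nuclei in treated wells to nuclei in vehicle wells, taken as the median of duplicate plates.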
# 201T = test system: 201T
# How it was run: as §1
# CAL-12T = test system: CAL-12T
# How it was run: as §1
# LCLC-97TM1 = test system: LCLC-97TM1
# How it was run: as §1
# NCI-H1395 = test system: NCI-H1395
# How it was run: as §1
# NCI-H1437 = test system: NCI-H1437
# How it was run: as §1
# NCI-H1793 = test system: NCI-H1793
# How it was run: as §1
# BEN = test system: BEN
# How it was run: as §1
# LXF-289 = test system: LXF-289
# How it was run: as §1
# NCI-H1650 = test system: NCI-H1650
# How it was run: as §1
# NCI-H2087 = test system: NCI-H2087
# How it was run: as §1
# NCI-H727 = test system: NCI-H727
# How it was run: as §1
# HOP-62 = test system: HOP-62
# How it was run: as §1
# RERF-LC-KJ = test system: RERF-LC-KJ
# How it was run: as §1
# NCI-H1355 = test system: NCI-H1355
# How it was run: as §1
# SK-LU-1 = test system: SK-LU-1
# How it was run: as §1
# NCI-H3122 = test system: NCI-H3122
# How it was run: as §1
# NCI-H2023 = test system: NCI-H2023
# How it was run: as §1
# HCC-44 = test system: HCC-44
# How it was run: as §1
# NCI-H2405 = test system: NCI-H2405
# How it was run: as §1
# NCI-H2228 = test system: NCI-H2228
# How it was run: as §1
# NCI-H647 = test system: NCI-H647
# How it was run: as §1
# HCC-827 = test system: HCC-827
# How it was run: as §1
compound,measurement,setting,value
COc1cc(N2CCC(C(N)=O)CC2)ccc1Nc1nc(N)c(Cl)c(Nc2ccccc2S(=O)(=O)C(C)C)n1 [HG-5-88-01] + CS(=O)(=O)CCNCc1ccc(-c2ccc3ncnc(Nc4ccc(OCc5cccc(F)c5)c(Cl)c4)c3c2)o1 [Lapatinib] (partner 2 µM),relative viability,NCI-H322M; first compound 0.04 µM,0.583
same,relative viability,NCI-H322M; first compound 0.1265 µM,0.428
same,relative viability,NCI-H322M; first compound 0.4 µM,0.492
same,relative viability,NCI-H322M; first compound 1.265 µM,0.501
same,relative viability,NCI-H322M; first compound 4 µM,0.485
same,relative viability,201T; first compound 0.04 µM,1.03
same,relative viability,201T; first compound 0.1265 µM,0.922
same,relative viability,201T; first compound 0.4 µM,1.01
same,relative viability,201T; first compound 1.265 µM,1.07
same,relative viability,201T; first compound 4 µM,1.14
same,relative viability,CAL-12T; first compound 0.04 µM,0.618
same,relative viability,CAL-12T; first compound 0.1265 µM,0.698
same,relative viability,CAL-12T; first compound 0.4 µM,0.641
same,relative viability,CAL-12T; first compound 1.265 µM,0.32
same,relative viability,CAL-12T; first compound 4 µM,0.359
same,relative viability,LCLC-97TM1; first compound 0.04 µM,0.999
same,relative viability,LCLC-97TM1; first compound 0.1265 µM,0.95
same,relative viability,LCLC-97TM1; first compound 0.4 µM,0.471
same,relative viability,LCLC-97TM1; first compound 1.265 µM,0.683
same,relative viability,LCLC-97TM1; first compound 4 µM,0.301
same,relative viability,NCI-H1395; first compound 0.04 µM,0.933
same,relative viability,NCI-H1395; first compound 0.1265 µM,1
same,relative viability,NCI-H1395; first compound 0.4 µM,1.12
same,relative viability,NCI-H1395; first compound 1.265 µM,1.05
same,relative viability,NCI-H1395; first compound 4 µM,0.83
same,relative viability,NCI-H1437; first compound 0.04 µM,0.8
same,relative viability,NCI-H1437; first compound 0.1265 µM,0.945
same,relative viability,NCI-H1437; first compound 0.4 µM,0.756
same,relative viability,NCI-H1437; first compound 1.265 µM,0.761
same,relative viability,NCI-H1437; first compound 4 µM,0.454
same,relative viability,NCI-H1793; first compound 0.1265 µM,0.655
same,relative viability,NCI-H1793; first compound 0.4 µM,0.607
same,relative viability,NCI-H1793; first compound 1.265 µM,0.762
same,relative viability,NCI-H1793; first compound 4 µM,0.77
same,relative viability,BEN; first compound 0.04 µM,0.817
same,relative viability,BEN; first compound 0.1265 µM,0.743
same,relative viability,BEN; first compound 0.4 µM,0.66
same,relative viability,BEN; first compound 1.265 µM,0.586
same,relative viability,BEN; first compound 4 µM,0.545
same,relative viability,LXF-289; first compound 0.04 µM,0.913
same,relative viability,LXF-289; first compound 0.1265 µM,0.904
same,relative viability,LXF-289; first compound 0.4 µM,0.883
same,relative viability,LXF-289; first compound 1.265 µM,0.928
same,relative viability,LXF-289; first compound 4 µM,0.867
same,relative viability,NCI-H1650; first compound 0.04 µM,0.785
same,relative viability,NCI-H1650; first compound 0.1265 µM,0.869
same,relative viability,NCI-H1650; first compound 0.4 µM,0.928
same,relative viability,NCI-H1650; first compound 1.265 µM,0.799
same,relative viability,NCI-H1650; first compound 4 µM,0.29
same,relative viability,NCI-H2087; first compound 0.04 µM,1.01
same,relative viability,NCI-H2087; first compound 0.1265 µM,0.988
same,relative viability,NCI-H2087; first compound 0.4 µM,0.989
same,relative viability,NCI-H2087; first compound 1.265 µM,0.899
same,relative viability,NCI-H2087; first compound 4 µM,0.735
same,relative viability,NCI-H727; first compound 0.04 µM,0.834
same,relative viability,NCI-H727; first compound 0.1265 µM,0.93
same,relative viability,NCI-H727; first compound 0.4 µM,0.669
same,relative viability,NCI-H727; first compound 1.265 µM,0.583
same,relative viability,NCI-H727; first compound 4 µM,0.39
same,relative viability,HOP-62; first compound 0.04 µM,1.1
same,relative viability,HOP-62; first compound 0.1265 µM,1.1
same,relative viability,HOP-62; first compound 0.4 µM,1.05
same,relative viability,HOP-62; first compound 1.265 µM,1.2
same,relative viability,HOP-62; first compound 4 µM,0.893
same,relative viability,RERF-LC-KJ; first compound 0.04 µM,0.833
same,relative viability,RERF-LC-KJ; first compound 0.1265 µM,0.774
same,relative viability,RERF-LC-KJ; first compound 0.4 µM,0.826
same,relative viability,RERF-LC-KJ; first compound 1.265 µM,0.876
same,relative viability,RERF-LC-KJ; first compound 4 µM,0.839
same,relative viability,NCI-H1355; first compound 0.04 µM,1.08
same,relative viability,NCI-H1355; first compound 0.1265 µM,1.04
same,relative viability,NCI-H1355; first compound 0.4 µM,0.832
same,relative viability,NCI-H1355; first compound 1.265 µM,0.917
same,relative viability,NCI-H1355; first compound 4 µM,0.623
same,relative viability,SK-LU-1; first compound 0.04 µM,0.947
same,relative viability,SK-LU-1; first compound 0.1265 µM,0.855
same,relative viability,SK-LU-1; first compound 0.4 µM,0.787
same,relative viability,SK-LU-1; first compound 1.265 µM,0.611
same,relative viability,SK-LU-1; first compound 4 µM,0.737
same,relative viability,NCI-H3122; first compound 0.04 µM,0.763
same,relative viability,NCI-H3122; first compound 0.1265 µM,0.357
same,relative viability,NCI-H3122; first compound 0.4 µM,0.281
same,relative viability,NCI-H3122; first compound 1.265 µM,0.221
same,relative viability,NCI-H3122; first compound 4 µM,0.2
same,relative viability,NCI-H2023; first compound 0.04 µM,0.926
same,relative viability,NCI-H2023; first compound 0.1265 µM,1.32
same,relative viability,NCI-H2023; first compound 0.4 µM,0.573
same,relative viability,NCI-H2023; first compound 1.265 µM,0.708
same,relative viability,NCI-H2023; first compound 4 µM,0.335
same,relative viability,HCC-44; first compound 0.04 µM,0.978
same,relative viability,HCC-44; first compound 0.1265 µM,0.987
same,relative viability,HCC-44; first compound 0.4 µM,0.845
same,relative viability,HCC-44; first compound 1.265 µM,1.04
same,relative viability,HCC-44; first compound 4 µM,0.669
same,relative viability,NCI-H2405; first compound 0.04 µM,1.25
same,relative viability,NCI-H2405; first compound 0.1265 µM,1.14
same,relative viability,NCI-H2405; first compound 0.4 µM,0.992
same,relative viability,NCI-H2405; first compound 1.265 µM,0.894
same,relative viability,NCI-H2405; first compound 4 µM,0.865
same,relative viability,NCI-H2228; first compound 0.04 µM,0.322
same,relative viability,NCI-H2228; first compound 0.1265 µM,0.264
same,relative viability,NCI-H2228; first compound 0.4 µM,0.394
same,relative viability,NCI-H2228; first compound 1.265 µM,0.409
same,relative viability,NCI-H2228; first compound 4 µM,0.356
same,relative viability,NCI-H647; first compound 0.04 µM,0.929
same,relative viability,NCI-H647; first compound 0.1265 µM,1.23
same,relative viability,NCI-H647; first compound 1.265 µM,1.11
same,relative viability,NCI-H647; first compound 4 µM,1.21
same,relative viability,HCC-827; first compound 0.04 µM,0.202
same,relative viability,HCC-827; first compound 0.1265 µM,0.211
same,relative viability,HCC-827; first compound 0.4 µM,0.17
same,relative viability,HCC-827; first compound 1.265 µM,0.197
same,relative viability,HCC-827; first compound 4 µM,0.17
